Source: PMC11148080, “Ru(II)-based complexes containing 2-thiouracil derivatives suppress liver cancer stem cells by targeting NF-κB and Akt/mTOR signaling” (Cell Death Discovery, 2024)

Tests used:
Type in all cases: cell-based, human
HepG2 cells [1] = assay: CD133 and CD44 expression by flow cytometry; settings: 24 h; for percentage of HepG2 CD133-positive cells: 8 μM complex 1 or 6 μM complex 2
Protocol: (§1) To stain the cell surface proteins, the cells were washed with an incubation buffer (0.5% bovine serum albumin in PBS), and then antibodies were added and incubated for 1 h at room temperature. The cells were then washed with PBS, and the fluorescence signal was measured by flow cytometry. CD133 and CD44 were quantified in YO-PRO-1 (Sigma‒Aldrich Co.) negative cells.
For all flow cytometry analyses, cellular fluorescence was measured using a BD LSRFortessa cytometer, BD FACSDiva software (BD Biosciences) and FlowJo software 10 (FlowJo LLC; Ashland, OR, USA). A minimum of 10,000 events were obtained per sample for intracellular staining, and a minimum of 30,000 events per sample were acquired for cell surface protein staining. Doublets were removed using FSC-A vs FCS-H and SCC-A vs SCC-H. Cellular debris was excluded from the analysis.

HepG2 cells [2] = assay: p62/SQSTM1 expression (autophagy); settings: HepG2, 24 h; 8 μM complex 1, 6 μM complex 2
Protocol: (§2) To stain intracellular proteins, the cells were harvested and resuspended in 0.5-1 mL of 4% formaldehyde for 10 min at 37 °C. The tube was then placed on ice for 1 min, after which the cells were prechilled and permeabilized using a sequence of 100% (30 min) to 90% (30 min) methanol with gentle mixing. After washing with incubation buffer (0.5% bovine serum albumin in PBS), primary antibodies were added and incubated for 1 h at room temperature. Finally, the cells were washed with PBS, and flow cytometry was used to measure cell fluorescence.
The cells were grown on coverslips in 24-well plates and exposed to the drugs for 24 h. The cells were then washed twice with saline solution, permeabilized with 0.5% Triton X-100, treated with RNase (10 μg/mL), and incubated overnight with a primary fluorochrome-conjugated antibody (for antibody details, see Table S5). The next day, the cells were washed with saline solution and mounted using Fluoromount-G with DAPI (Invitrogen, Thermo Fisher Scientific). The cells were examined using a Leica TCS SP8 confocal microscope (Leica Microsystems, Wetzlar, HE, Germany).

HepG2 cells [3] = assay: Mitochondrial transmembrane potential (rhodamine 123); settings: HepG2, 24 h
Protocol: For apoptosis detection, cell viability was quantified using Annexin V-FITC/PI (FITC Annexin V Apoptosis Detection Kit I, BD Biosciences, San Jose, CA, USA) according to the manufacturer’s instructions. The cells were also stained with rhodamine 123 (5 μg/mL, Sigma Aldrich Co.) for 15 min at 37 °C in the dark to assess the mitochondrial transmembrane potential. After the cells were washed, they were incubated in saline for 30 min in the dark at 37 °C and analyzed by flow cytometry.

HepG2 cells [4] = assay: EMT markers vimentin and E-cadherin by flow cytometry; settings: HepG2, 24 h; 6 μM complex 2
Protocol: as §1, §2

Row | Structure (SMILES) | percentage of HepG2 CD133-positive cells (HepG2 cells [1]) | induction of autophagy (p62/SQSTM1 expression) (HepG2 cells [2]) | mitochondrial depolarization (HepG2 cells [3]) | percentage of HepG2 CD44high cells (HepG2 cells [1]; 6 μM complex 2) | E-cadherin expression (HepG2 cells [4]) | vimentin expression (HepG2 cells [4])
1 | F[P-](F)(F)(F)(F)F.O=c1cc[nH]c([S][Ru+])n1.c1ccc(-c2ccccn2)nc1.c1ccc(P(c2ccccc2)c2ccccc2)cc1.c1ccc(P(c2ccccc2)c2ccccc2)cc1 [Complex 1, trans-[Ru(2TU)(PPh3)2(bipy)]PF6] | reduced | none of them caused autophagy | Significant mitochondrial depolarization |  |  | 
2 | Cc1cc(=O)nc([S][Ru+])[nH]1.F[P-](F)(F)(F)(F)F.c1ccc(-c2ccccn2)nc1.c1ccc(P(c2ccccc2)c2ccccc2)cc1.c1ccc(P(c2ccccc2)c2ccccc2)cc1 [Complex 2, trans-[Ru(6m2TU)(PPh3)2(bipy)]PF6] | reduced | none of them caused autophagy | Significant mitochondrial depolarization | reduced | increased | reduced
